These results are taken from paper PMC9558617 (ACS infectious diseases, 2022).

One data set has as its system Mtb WT. Kind of data set: microbe, parasite or virus in culture. It counts as cell-based, Mycobacterium tuberculosis. As to conditions: for MIC: Mycobacterium tuberculosis.
The next data set concerns CC(C)(CO)C(=O)C(=O)O. Description: purified protein, by the assay type.
The next data set concerns PanE KPR from E. coli. The following applies: literature values; cited from earlier work.
The next data set has as its system Mtb H37Rv. Description: microbe, parasite or virus in culture. It counts as cell-based. The following applies: Mycobacterium tuberculosis, 168 h, read-out: MIC 7H9/ADC/Tw.

As a reminder, the Km is the substrate concentration at which the rate is half of its maximum.

Values after ≈ are worked out from the molar mass of the structure shown. Like-named read-outs stand apart in the source and are kept apart here.

With `C[C@@H](O)[C@H]1C(=O)N2C(C(=O)O)=C(SCCN=CN)C[C@H]12` [Imipenem], the MIC with Mtb WT (read-out: MIC WT) was determined as 0.39 µM (≈ 0.117 µg/mL).
The same measure, in the same setting: then `CN[C@H](CC(C)C)C(=O)N[C@H]1C(=O)N[C@@H](CC(N)=O)C(=O)N[C@H]2C(=O)N[C@H]3C(=O)N[C@H](C(=O)N[C@H](C(=O)O)c4cc(O)cc(O)c4-c4cc3ccc4O)[C@H](O)c3ccc(c(Cl)c3)Oc3cc2cc(c3O[C@@H]2O[C@H](CO)[C@@H](O)[C@H](O)[C@H]2O[C@H]2C[C@](C)(N)[C@H](O)[C@H](C)O2)Oc2ccc(cc2Cl)[C@H]1O` [Vancomycin], with 5 µM (≈ 7.25 µg/mL); and `CC[C@@H](CO)NCCN[C@@H](CC)CO` [Ethambutol], with 1.6 µM (≈ 0.327 µg/mL).
Take `N[C@@H]1CON=C1O` [D-Cycloserine]: the MIC in the data set on Mtb WT (read-out: MIC WT) was 4.7 µM (≈ 0.48 µg/mL).
As to “MtbPanG (Rv3603c) (Mycobacterium tuberculosis H37Rv)”, the Km in the data set on CC(C)(CO)C(=O)C(=O)O is 24 ± 2 µM.
For the compound `CC1(C)S[C@@H]2[C@H](NC(=O)[C@H](N)c3ccccc3)C(=O)N2[C@H]1C(=O)O` [Ampicillin], in the data set on Mtb WT, the “MIC WT” value was over 50 µM and the MIC worked out at 2.3 µM (≈ 0.804 µg/mL). The MIC in the data set on Mtb WT (read-out: MIC WT) was over 50 µM.
For `C[C@]1(COc2ccc(N3CCC(Oc4ccc(OC(F)(F)F)cc4)CC3)cc2)Cn2cc([N+](=O)[O-])nc2O1` [Delamanid], the MIC in the data set on Mtb WT (read-out: MIC WT) was 0.0031 µM (≈ 0.00166 µg/mL).
On to NADPH, for which the Km in the data set on PanE KPR from E. coli was 4 to 7 µM.
Turning to `Nc1ccc(C(=O)O)c(O)c1` [p-Aminosalicylic acid], the MIC with Mtb WT (read-out: MIC WT) was 0.3 µM (≈ 0.0459 µg/mL).
With Capreomycin, in the data set on Mtb WT, the “MIC WT” value stood at 0.78 µM.
For `N[C@H](Cc1ccccc1)C(=O)O` [D-Phe, D-phenylalanine], the MIC with Mtb H37Rv was over 310 µM.
`CC(C)(CO)C(=O)C(=O)O` [ketopantoate]: in the data set on PanE KPR from E. coli, the Km was 30 to 120 µM.
On to `CC(C)/N=c1\cc2n(-c3ccc(Cl)cc3)c3ccccc3nc-2cc1Nc1ccc(Cl)cc1` [Clofazimine], for which, in the data set with Mtb WT (read-out: MIC WT), the MIC came to 0.16 µM (≈ 0.0757 µg/mL).
On the same count and under the same terms, then `CC(=O)NC[C@H]1CN(c2ccc(N3CCOCC3)c(F)c2)C(=O)O1` [Linezolid], with 0.78 µM (≈ 0.263 µg/mL); and `CCc1cc(C(N)=S)ccn1` [Ethionamide], with 0.3 µM (≈ 0.0499 µg/mL); and `COc1c(N2C[C@@H]3CCCN[C@@H]3C2)c(F)cc2c(=O)c(C(=O)O)cn(C3CC3)c12` [Moxifloxacin], with 0.12 µM (≈ 0.0482 µg/mL).
On the same count and under the same terms, then `[H]/N=C(/N)N[C@H]1[C@H](O)[C@@H](O)[C@H](O[C@@H]2O[C@@H](C)[C@](O)(C=O)[C@H]2O[C@@H]2O[C@@H](CO)[C@H](O)[C@@H](O)[C@@H]2NC)[C@@H](N/C(N)=N\[H])[C@@H]1O` [Streptomycin], with 0.46 µM (≈ 0.268 µg/mL); and `COc1nc2ccc(Br)cc2cc1[C@@H](c1ccccc1)[C@@](O)(CCN(C)C)c1cccc2ccccc12` [Bedaquiline], with 0.31 µM (≈ 0.172 µg/mL).
On the same count and under the same terms, then `C[C@@H](O)[C@H]1C(=O)N2C(C(=O)O)=C(S[C@@H]3CN[C@H](C(=O)N(C)C)C3)[C@H](C)[C@H]12` [Meropenem], with 1.2 µM (≈ 0.46 µg/mL); and `NNC(=O)c1ccncc1` [Isoniazid], with 0.31 µM (≈ 0.0425 µg/mL); and `CO[C@H]1/C=C/O[C@@]2(C)Oc3c(C)c(O)c4c(O)c(c(/C=N/N5CCN(C)CC5)c(O)c4c3C2=O)NC(=O)/C(C)=C\C=C\[C@H](C)[C@H](O)[C@@H](C)[C@@H](O)[C@@H](C)[C@H](OC(C)=O)[C@@H]1C` [Rifampicin], with 0.012 µM (≈ 0.00988 µg/mL).
